In this assay the test system is acute allograft rejection. In words: murine cardiac ear pinna model of acute allograft rejection (non-vascularized cardiac tissue transplantation). In kind it is in vivo. Particulars: monotherapy; for Graft Survival, Mean ± Std Dev (mean survival days): day 0 to 17, BALB/C neonatal hearts into C3H/HeN ear pinna, assessed day 6 to 18. An excerpt:
Methods: A rapid, facile 2-week murine bioassay of non-vascularized cardiac tissue transplantation,t he murine cardiac ear pinna model of acute allograft rejection, was used to evaluate the dose-response relationship of immunosuppressive drugs on allograft rejection. In this model, donor BALB/C (H2^d) neonatal hearts are transplanted into recipient C3H/HeN (H2^k) ear pinna pouches without vacular anastomoses. Survivinghearts are revascularized and usually resume beating on day 3 to 6. Untreated allografts failed prior to day 12 (MST = 10.5 + 0.9d, n=13). Isografts survived indefinitely. All compounds are given on day 0 to 17 COMPOUND P [(+)-2-[3,4-dihydro(3S,4R)-4-hydroxy-3-(4-phenyl-phenylmethyl)-7-(2H,1-benzopyran)]cyclopentane carboxylic acid] was given orally in 0.5% Methylcellulose. Grafts were assessed by visual examination for contraction on alternate days (from 6 to 18) and graft survival was defined as the post-transplant day on which contractions cease. Efficacy data from day 6 to 18 is presented as mean survival days (+SD) and was analyzed by Log Rank Analysis. Graft survival values were determined at day 18. Any graft surviving at day 18 was censored for statistical purposes.

This is an account of results in EP0963755A2, “Use of benzopyranes for preventing allograft rejection” (Pfizer Products Inc., priority 1998, dated 1999).

Each structure is given as a SMILES string.

In the case of `O=C(O)C1CCCC1c1ccc2c(c1)OC[C@H](Cc1ccc(-c3ccccc3)cc1)[C@H]2O` (single isomer, unassigned; (+)) [COMPOUND P], the “efficacy as a single agent in acute rejection (graft survival on day 18)” value by setting is: (highest dose, 300 mg/kg d) “significant (p<0.01)”; (lower doses tested (200, 100, and 30 mg/kg)) “not at the lower doses tested”. In addition, the “Graft Survival, Mean ± Std Dev (mean survival days)” value is, setting by setting: (30 mg/kg/d orally in 0.5% Methylcellulose) 11.0 ± 1.1 days; (100 mg/kg/d orally in 0.5% Methylcellulose) 10.3 ± 0.7 days; (200 mg/kg/d orally in 0.5% Methylcellulose) 10.3 ± 0.7 days; (300 mg/kg/d orally in 0.5% Methylcellulose) 11.8 ± 1.1 days.
